pIC50: −log10 of the molar value. Where only a bound is given, the exact number is not on record here.
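Also: ADP-Glo luminescence assay of ADP formed by 5 nM full-length DGKα on extruded PS/DAG/PC liposomes with 150 µM ATP, 1 h reaction, 11-point inhibitor titration.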

For the assay, the target named is Full length human DGKα (Homo sapiens (Human), UniProt P23743).
Sequence of Full length human DGKα (P23743 other isoform, or with tags, fused parts or gaps): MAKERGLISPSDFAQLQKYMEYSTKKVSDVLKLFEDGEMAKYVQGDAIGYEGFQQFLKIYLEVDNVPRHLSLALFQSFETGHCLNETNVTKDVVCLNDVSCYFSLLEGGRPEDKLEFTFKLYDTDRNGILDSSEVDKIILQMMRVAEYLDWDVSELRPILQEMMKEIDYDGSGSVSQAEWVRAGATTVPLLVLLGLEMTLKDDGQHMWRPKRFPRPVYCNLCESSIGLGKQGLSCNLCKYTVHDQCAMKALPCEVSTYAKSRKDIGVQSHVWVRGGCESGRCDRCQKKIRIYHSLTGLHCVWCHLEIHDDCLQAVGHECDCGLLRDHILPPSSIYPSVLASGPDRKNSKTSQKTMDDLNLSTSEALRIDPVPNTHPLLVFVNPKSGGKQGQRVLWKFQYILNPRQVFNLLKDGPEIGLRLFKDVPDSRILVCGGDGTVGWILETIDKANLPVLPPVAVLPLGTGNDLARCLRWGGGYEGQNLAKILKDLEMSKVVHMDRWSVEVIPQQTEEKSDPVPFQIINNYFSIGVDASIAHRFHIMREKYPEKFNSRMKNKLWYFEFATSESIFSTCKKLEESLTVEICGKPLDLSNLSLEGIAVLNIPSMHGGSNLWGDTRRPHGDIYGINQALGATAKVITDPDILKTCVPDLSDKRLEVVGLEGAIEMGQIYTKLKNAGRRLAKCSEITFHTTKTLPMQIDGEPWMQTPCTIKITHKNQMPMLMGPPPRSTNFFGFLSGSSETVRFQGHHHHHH
Procedure: The DGKα (Full Length and Near Full Length) ADP Glo assays were performed using an extruded liposome prep at either 5% DAG or 10% DAG. The Enzymatic reactions were carried out in 50 mM MOPS pH 7.5, 100 mM NaCl, 10 mM MgCl2, 1 μM CaCl2, and 1 mM DTT (assay buffer). The lipid substrate concentrations were 1.9 mM PS, either 0.25 mM DAG (5% liposome prep) or 0.5 mM DAG (10% liposome prep), and 2.7 mM PC for the extruded liposome reactions. The reactions were carried out at 150 μM ATP. The enzyme concentrations for the DGKα(Near Full Length) and DGKα(FL) were 5 nM.
The compound inhibition studies were carried out as follows: 25 nL droplets of each test compound (11 point, 3-fold dilution series for each compound) solubilized in DMSO were transferred to wells of a white 1536 well plate (Corning 3725). A 5 mL enzyme/substrate (substrate being the 5× or 10× liposome preparation) solution at 2× final reaction concentrations was prepared by combining 5 ml of the extruded liposome preparation with 10 nM (2× final) DGKα(Near Full Length) or DGKα(Full Length) prepared as described below) and incubated at room temperature for 10 minutes. Next, 1 μL of the 2× enzyme/substrate solution was added to wells containing the test compound and reactions were initiated with the addition of 1 μL 300 uM ATP. Substrate only was added to DMSO only wells for background measurements. The reactions were allowed to proceed for 1 hr, after which 2 μL Glo Reagent (Promega V9101) was added and incubated for 40 minutes. Next, 4 μL Kinase Detection Reagent was added and incubated for 30 minutes. Luminescence was recorded using an EnVision microplate reader. […] The compounds were evaluated at 11 concentrations to determine IC50.
Regarding `COc1ccc(-n2nnnc2CN(C)C2CCCCC2)cc1` [Example 31, N-((1-(4-methoxyphenyl)-1H-tetrazol-5-yl)methyl)-N-methylcyclohexanamine], the pIC50 (usually the negative decadic logarithm of the IC50, by convention in mol/L) was 4.25.
With `CN(Cc1nnnn1-c1ccc([N+](=O)[O-])cc1)C1CCCCC1` [Example 32, N-methyl-N-((1-(4-nitrophenyl)-1H-tetrazol-5-yl)methyl)cyclohexanamine] the figure was 4.89.
The result for `COC(=O)c1cccc(-n2nnnc2CN(C)C2CCCCC2)c1` [Example 33, methyl 3-(5-((cyclohexyl(methyl)amino)methyl)-1H-tetrazol-1-yl)benzoate] reads under 3.62; that for `CN(Cc1nnnn1-c1cccc(C(=O)O)c1)C1CCCCC1` [Example 34, 3-(5-((cyclohexyl (methyl)amino)methyl)-1H-tetrazol-1-yl)benzoic acid], under 4.09; that for `Cc1cccc(-n2nnnc2CN(C)C2CCCCC2)c1` [Example 35, N-methyl-N-((1-(m-tolyl)-1H-tetrazol-5-yl)methyl)cyclohexanamine], 4.30.
The result for `CN(Cc1nnnn1-c1cccc(Cl)c1)C1CCCCC1` [Example 36, N-((1-(3-chlorophenyl)-1H-tetrazol-5-yl)methyl)-N-methylcyclohexanamine] reads 4.96; that for `O=[N+]([O-])c1cccc(-n2nnnc2CN(CCO)C2CCCCC2)c1` [Example 43, 2-(cyclohexyl((1-(3-nitrophenyl)-1H-tetrazol-5-yl)methyl)amino)ethan-1-ol], 4.14; that for `CN(Cc1nnnn1-c1cccc(Br)c1)C1CCCCC1` [Example 45, N-((1-(3-bromophenyl)-1H-tetrazol-5-yl)methyl)-N-methylcyclohexanamine], 4.92.
Take `CN(Cc1nnnn1-c1ccc(F)nc1)C1CCCCC1` [Example 46, N-((1-(6-fluoropyridin-3-yl)-1H-tetrazol-5-yl)methyl)-N-methylcyclohexanamine]: the pIC50 was 4.80.
Turning to `CN(Cc1nnnn1-c1cc(C#N)c(=O)n(C)c1)C1CCCCC1` [Example 48, 5-(5-((cyclohexyl(methyl)amino)methyl)-1H-tetrazol-1-yl)-1-methyl-2-oxo-1,2-dihydropyridine-3-carbonitrile], the pIC50 is 4.25.
Compound `CN(Cc1nnnn1-c1ccc(Cl)c(C(F)(F)F)c1)C1CCCCC1` [Example 49, N-((1-(4-chloro-3-(trifluoromethyl)phenyl)-1H-tetrazol-5-yl)methyl)-N-methylcyclohexanamine] showed a pIC50 of 4.77.
The result for `CC1CCC(C)N1Cc1nnnn1-c1ccc(Cl)c(C#N)c1` (centres unmarked) [Example 50, 2-chloro-5-(5-((2,5-dimethylpyrrolidin-1-yl)methyl)-1H-tetrazol-1-yl)benzonitrile] reads 4.27; that for `CCOC(=O)C1CCC(N(Cc2nnnn2-c2ccc(Cl)c(C#N)c2)C2CC2)CC1` (centres unmarked) [Example 51, ethyl 4-(((1-(4-chloro-3-cyanophenyl)-1H-tetrazol-5-yl)methyl)(cyclopropyl)amino) cyclohexane-1-carboxylate], 4.89.
The compound `N#Cc1cc(-n2nnnc2CN(CC(O)c2ccccc2)C2CCCCC2)ccc1Cl` (centres unmarked) [Example 52, 2-chloro-5-(5-((cyclohexyl(2-hydroxy-2-phenylethyl)amino)methyl)-1H-tetrazol-1-yl)benzonitrile] showed a pIC50 of 4.96.
The result for `CCCN(Cc1nnnn1-c1ccc(Cl)c(C#N)n1)C1CCCCC1` [Example 53, 3-chloro-6-(5-((cyclohexyl(propyl)amino)methyl)-1H-tetrazol-1-yl)picolinonitrile] reads 4.82; that for `N#Cc1nc(-n2nnnc2CN(CCCNC(=O)c2ccccc2)C2CCCCC2)ccc1Cl` [Example 54, N-(3-(((1-(5-chloro-6-cyanopyridin-2-yl)-1H-tetrazol-5-yl)methyl)(cyclohexyl)amino)propyl)benzamide], 4.15; that for `CC(C)N(Cc1nnnn1-c1ccc(Cl)c(C#N)n1)C1CCCCC1` [Example 55, 3-chloro-6-(5-((cyclohexyl(isopropyl)amino)methyl)-1H-tetrazol-1-yl)picolinonitrile], 4.34.

The record behind these values is patent publication US20260049068A1, “Substituted Tetrazolyl Compounds Useful as T Cell Activators” (BRISTOL-MYERS SQUIBB COMPANY, priority 2022, published 2026).
